Measurements from patent US9505786B2, “Substituted annulated triazines and use thereof” (BAYER INTELLECTUAL PROPERTY GMBH, priority 2012, dated 2016).

Tests used:
[1] = target: human phosphodiesterase 5 (PDE 5) (Homo sapiens (Human), UniProt O76074); experiment: Inhibition of human phosphodiesterase 5 (PDE 5), SPA assay; assay type: biochemical; conditions: PDE 5 preparation from human platelets, [8-3H] cGMP substrate
Procedure: B-6. Inhibition of Human Phosphodiesterase 5 (PDE 5)
PDE 5 preparations are obtained from human platelets by disruption (Microfluidizer®, 800 bar, 3 passes), followed by centrifugation (75 000 g, 60 min, 4° C.) and ion exchange chromatography of the supernatant on a Mono Q 10/10 column (linear sodium chloride gradient, elution with a 0.2-0.3M solution of sodium chloride in buffer (20 mM Hepes pH 7.2, 2 mM magnesium chloride). Fractions having PDE 5 activity are combined (PDE 5 preparation) and stored at −80° C.
To determine their in vitro action on human PDE 5, the test substances are dissolved in 100% DMSO and serially diluted. Typically, dilution series (1:3) from 200 μM to 0.091 μM are prepared (resulting final concentrations in the test: 4 μM to 0.0018 μM). In each case 2 μl of the diluted substance solutions are placed into the wells of microtitre plates (Isoplate-96/200W; Perkin Elmer). Subsequently, 50 μl of a dilution of the above-described PDE 5 preparation are added. The dilution of the PDE 5 preparation is chosen such that during the later incubation less than 70% of the substrate are converted (typical dilution: 1:100; dilution buffer: 50 mM Tris/hydrochloric acid pH 7.5, 8.3 mM magnesium chloride, 1.7 mM EDTA, 0.2% BSA). The substrate, [8-^3H] cyclic guanosine-3′,5′-monophosphate (1 μCi/μl; Perkin Elmer) is diluted 1:2000 with assay buffer (50 mM tris/hydrochloric acid pH 7.5, 8.3 mM magnesium chloride, 1.7 mM EDTA) to a concentration of 0.0005 μCi/μl. By addition of 50 μl (0.025 μCi) of the diluted substrate, the enzyme reaction is finally started. The test mixtures are incubated at room temperature for 60 min and the reaction is stopped by adding 25 μl of a suspension of 18 mg/ml yttrium scintillation proximity beads in water (phosphodiesterase beads for SPA assays, RPNQ 0150, Perkin Elmer). The microtitre plates are sealed with a film and left to stand at room temperature for 60 min. Subsequently, the plates are analysed for 30 s per well in a Microbeta scintillation counter (Perkin Elmer). IC50 values are determined using the graphic plot of the substance concentration against percentage PDE 5 inhibition.

[2] = test system: recombinant guanylate cyclase reporter cell line; experiment: Effect on a recombinant guanylate cyclase reporter cell line; assay type: cell-based
Procedure: B-2. Effect on a Recombinant Guanylate Cyclase Reporter Cell Line
The cellular activity of the compounds according to the invention is determined using a recombinant guanylate cyclase reporter cell line, as described in F. Wunder et al., Anal. Biochem. 339, 104-112 (2005).

[3] = test system: aorta rings; experiment: Vasorelaxant effect in vitro (phenylephrine-contracted aorta rings); conditions: Oryctolagus cuniculus, rabbit aorta rings, organ bath, phenylephrine contraction; read-out: IC50 (concentration needed to reduce the phenylephrine contraction by 50%)
Procedure: B-1. Vasorelaxant Effect In Vitro
Rabbits are stunned by a blow to the neck and exsanguinated. The aorta is removed, freed from adhering tissue and divided into rings of a width of 1.5 mm. The rings are placed individually under an initial tension in 5 ml organ baths with Krebs-Henseleit solution which is at 37° C., is gassed with carbogen and has the following composition (in each case mM): sodium chloride: 119; potassium chloride: 4.8; calcium chloride dihydrate: 1; magnesium sulphate heptahydrate: 1.4; potassium dihydrogenphosphate: 1.2; sodium bicarbonate: 25; glucose: 10. The contractile force is determined with Statham UC2 cells, amplified and digitalized using A/D transducers (DAS-1802 HC, Keithley Instruments Munich), and recorded in parallel on linear recorders.
To produce a contraction, phenylephrine is added to the bath cumulatively in increasing concentration. After several control cycles, the substance to be investigated is added in each further run in increasing dosage in each case, and the height of the contraction achieved is compared with the height of the contraction reached in the last preceding run. This is used to calculate the concentration needed to reduce the magnitude of the control value by 50% (IC50 value). The standard administration volume is 5 μl; the DMSO content in the bath solution corresponds to 0.1%.

| IC50 [1] | IC50 [3] | SMILES | MEC (minimum effective concentration) [2] |
| --- | --- | --- | --- |
| 340 nM | 41 nM | CCC1(C)C(=O)Nc2nc(-c3nn(Cc4ccccc4F)c4ncc(F)cc34)nnc21 (racemic) [Example 7, 7-Ethyl-3-[5-fluoro-1-(2-fluorobenzyl)-1H-pyrazolo[3,4-b]pyridin-3-yl]-7-methyl-5,7-dihydro-6H-pyrrolo[2,3-e][1,2,4]triazin-6-one (racemate)] | 30 nM |
| 120 nM | 71 nM | COCCCc1nc(-c2nn(Cc3ccccc3F)c3ncccc23)nc2c1C(C)(C)C(=O)N2 [Example 46, 2-[1-(2-Fluorobenzyl)-1H-pyrazolo[3,4-b]pyridin-3-yl]-4-(3-methoxypropyl)-5,5-dimethyl-5,7-dihydro-6H-pyrrolo[2,3-d]pyrimidin-6-one] | 100 nM |
| 140 nM | 413 nM | C=CCC1(C)C(=O)Nc2nc(-c3nn(Cc4ccccc4F)c4ncc(F)cc34)nnc21 (racemic) [Example 51, (rac) 7-Allyl-3-[5-fluoro-1-(2-fluorobenzyl)-1H-pyrazolo[3,4-b]pyridin-3-yl]-7-methyl-5,7-dihydro-6H-pyrrolo[2,3-e][1,2,4]triazin-6-one] | 30 nM |
| 1100 nM | 246 nM | CC1(COCc2ccccc2)C(=O)Nc2nc(-c3nn(Cc4ccccc4F)c4ncc(F)cc34)nnc21 (racemic) [Example 6, 7-[(Benzyloxy)methyl]-3-[5-fluoro-1-(2-fluorobenzyl)-1H-pyrazolo[3,4-b]pyridin-3-yl]-7-methyl-5,7-dihydro-6H-pyrrolo[2,3-e][1,2,4]triazin-6-one (racemate)] | 100 nM |
| 130 nM | 415 nM | CC1(C)C(=O)Nc2nc(-c3nn(Cc4ccccc4F)c4ncccc34)nc(CCCC(F)(F)F)c21 [Example 30, 2-[1-(2-Fluorobenzyl)-1H-pyrazolo[3,4-b]pyridin-3-yl]-5,5-dimethyl-4-(4,4,4-trifluorobutyl)-5,7-dihydro-6H-pyrrolo[2,3-d]pyrimidin-6-one] | 100 nM |
| 2000 nM | 420 nM | CCOc1ccc(-c2nc(-c3nn(Cc4ccccc4F)c4ncccc34)nc3c2C(C)(C)C(=O)N3)cn1 [Example 14, 4-(6-Ethoxypyridin-3-yl)-2-[1-(2-fluorobenzyl)-1H-pyrazolo[3,4-b]pyridin-3-yl]-5,5-dimethyl-5,7-dihydro-6H-pyrrolo[2,3-d]pyrimidin-6-one] | 300 nM |
| 15 nM | 276 nM | Cc1ccc(Cn2nc(-c3nnc4c(n3)NC(=O)C4(C)C)c3cc(F)cnc32)c(F)c1 [Example 10, 3-[5-Fluoro-1-(2-fluoro-4-methylbenzyl)-1H-pyrazolo[3,4-b]pyridin-3-yl]-7,7-dimethyl-5,7-dihydro-6H-pyrrolo[2,3-e][1,2,4]triazin-6-one] | 300 nM |
| 1300 nM | 728 nM | Cn1c(C#N)ccc1-c1nc(-c2nn(Cc3ccccc3F)c3ncccc23)nc2c1C(C)(C)C(=O)N2 [Example 42, 5-{2-[1-(2-Fluorobenzyl)-1H-pyrazolo[3,4-b]pyridin-3-yl]-5,5-dimethyl-6-oxo-6,7-dihydro-5H-pyrrolo[2,3-d]pyrimidin-4-yl}-1-methyl-1H-pyrrole-2-carbonitrile] | 10 nM |
| 260 nM | 137 nM | CC1(CC2CC2)C(=O)Nc2nc(-c3nn(Cc4ccccc4F)c4ncc(F)cc34)nnc21 (racemic) [Example 5, 7-(Cyclopropylmethyl)-3-[5-fluoro-1-(2-fluorobenzyl)-1H-pyrazolo[3,4-b]pyridin-3-yl]-7-methyl-5,7-dihydro-6H-pyrrolo[2,3-e][1,2,4]triazin-6-one (racemate)] | 100 nM |
| 150 nM | 836 nM | CC1(C)C(=O)Nc2nc(-c3nn(Cc4ccccc4F)c4ncccc34)nc(/C=C\C3CC3)c21 [Example 18, 4-[(Z)-2-Cyclopropylvinyl]-2-[1-(2-fluorobenzyl)-1H-pyrazolo[3,4-b]pyridin-3-yl]-5,5-dimethyl-5,7-dihydro-6H-pyrrolo[2,3-d]pyrimidin-6-one] | 100 nM |
| 1200 nM | 218 nM | CC1(c2nncs2)C(=O)Nc2nc(-c3nn(Cc4ccccc4F)c4ncccc34)ncc21 (racemic) [Example 34, (rac) 2-[1-(2-Fluorobenzyl)-1H-pyrazolo[3,4-b]pyridin-3-yl]-5-methyl-5-(1,3,4-thiadiazol-2-yl)-5,7-dihydro-6H-pyrrolo[2,3-d]pyrimidin-6-one] | 30 nM |
| 2000 nM | 198 nM | O=C1Nc2nc(-c3nn(Cc4ccccc4F)c4ncc(F)cc34)nnc2C12CCCC2 [Example 9, 3′-[5-Fluoro-1-(2-fluorobenzyl)-1H-pyrazolo[3,4-b]pyridin-3-yl]spiro[cyclopentane-1,7′-pyrrolo[2,3-e][1,2,4]triazin]-6′(5′H)-one] | 30 nM |
| 1100 nM | 218 nM | Cc1nc(C)c(-c2nc(-c3nn(Cc4ccccc4F)c4ncccc34)nc3c2C(C)(C)C(=O)N3)s1 [Example 36, 4-(2,4-Dimethyl-1,3-thiazol-5-yl)-2-[1-(2-fluorobenzyl)-1H-pyrazolo[3,4-b]pyridin-3-yl]-5,5-dimethyl-5,7-dihydro-6H-pyrrolo[2,3-d]pyrimidin-6-one] | 100 nM |
| 40 nM | 738 nM | CC1(C)C(=O)Nc2nc(-c3nn(Cc4ccccc4F)c4ncccc34)nc(-c3ccn[nH]3)c21 [Example 15, 2-[1-(2-Fluorobenzyl)-1H-pyrazolo[3,4-b]pyridin-3-yl]-5,5-dimethyl-4-(1H-pyrazol-5-yl)-5,7-dihydro-6H-pyrrolo[2,3-d]pyrimidin-6-one] | 10 nM |
| 240 nM | 225 nM | CC(C)n1ccc(-c2nc(-c3nn(Cc4ccccc4F)c4ncccc34)nc3c2C(C)(C)C(=O)N3)n1 [Example 39, 2-[1-(2-Fluorobenzyl)-1H-pyrazolo[3,4-b]pyridin-3-yl]-4-(1-isopropyl-1H-pyrazol-3-yl)-5,5-dimethyl-5,7-dihydro-6H-pyrrolo[2,3-d]pyrimidin-6-one] | 30 nM |
| 250 nM | 227 nM | Cn1nccc1-c1nc(-c2nn(Cc3ccccc3F)c3ncccc23)nc2c1C(C)(C)C(=O)N2 [Example 40, 2-[1-(2-Fluorobenzyl)-1H-pyrazolo[3,4-b]pyridin-3-yl]-5,5-dimethyl-4-(1-methyl-1H-pyrazol-5-yl)-5,7-dihydro-6H-pyrrolo[2,3-d]pyrimidin-6-one] | 30 nM |
| 660 nM | 1590 nM | CCOCCC1(C)C(=O)Nc2nc(-c3nn(Cc4ccccc4F)c4ncc(F)cc34)nnc21 (stereo not drawn) [Example 13, 7-(2-Ethoxyethyl)-3-[5-fluoro-1-(2-fluorobenzyl)-1H-pyrazolo[3,4-b]pyridin-3-yl]-7-methyl-5,7-dihydro-6H-pyrrolo[2,3-e][1,2,4]triazin-6-one] | 100 nM |
| 110 nM | 244 nM | CCCc1nc(-c2nn(Cc3ccccc3F)c3ncccc23)nc2c1C(C)(C)C(=O)N2 [Example 32, 2-[1-(2-Fluorobenzyl)-1H-pyrazolo[3,4-b]pyridin-3-yl]-5,5-dimethyl-4-propyl-5,7-dihydro-6H-pyrrolo[2,3-d]pyrimidin-6-one] | 100 nM |
